This is an account of results in patent US11279711B2, “Condensed heterocyclic derivates as BCL-2 inhibitors for the treatment of neoplastic diseases” (Newave Pharmaceutical Inc., priority 2017, dated 2022).

In data set [1] the test system is BCL-2-dependent acute lymphoblastic leukemia (ALL) cell line RS4;11. As to the kind of experiment: In vitro anti-proliferation assay (ATPlite) in RS4;11. Conditions: Homo sapiens; RS4;11, 5% FBS, about 72 hours; read-out: IC50, RS4; 115% FBS. The data set is classed as cell-based. The procedure:
Biological Example 2: In Vitro Anti-Proliferation Assay in BCL-2-Dependent Acute Lymphoblastic Leukemia (ALL) Cell Line RS4;11
(§1) Cell antiproliferation was assayed by PerkinElmer ATPlite™ Luminescence Assay System. Briefly, the various test cancer cell lines were plated at a density of about 1×10^4 cells per well in Costar 96-well plates, and were incubated with different concentrations of compounds for about 72 hours in medium supplemented with 5% FBS or 10% normal human serum (NHS). One lyophilized substrate solution vial was then reconstituted by adding 5 mL of substrate buffer solution, and was agitated gently until the solution was homogeneous. About 50 μL of mammalian cell lysis solution was added to 100 μL of cell suspension per well of a microplate, and the plate was shaken for about five minutes in an orbital shaker at −700 rpm. This procedure was used to lyse the cells and to stabilize the ATP. Next, 50 μL substrate solution was added to the wells and microplate was shaken for five minutes in an orbital shaker at ˜700 rpm. Finally, the luminescence was measured by a PerkinElmer TopCount® Microplate Scintillation Counter. Such assays, carried out with a range of doses of test compounds, allowed the determination of the cellular anti-antiproliferative IC50 of the compounds of the present invention. The following table lists the IC50 values of certain compounds of the invention.
A general note: Cellular ATP, detected with luciferase, serves as a proxy for viable cell number.

Another data set concerns Toledo. Put plainly: In vitro anti-proliferation assay (ATPlite), Toledo. In kind it is cell-based. Conditions: Homo sapiens, 5% FBS, about 72 hours. The procedure:
(§2) Biological Example 3: In Vitro Anti-Proliferation Assay in Small Cell Lung Cancer (SCLC) Cell Line
as §1, with “FBS.” for “FBS or 10% normal human serum (NHS).”, “˜700” for “−700”, “invention.” for “invention. The following table lists the IC50 values of certain compounds of the invention.”

The next data set concerns MV411. Put plainly: In vitro anti-proliferation assay (ATPlite), MV411. The data set is classed as cell-based. Conditions: Homo sapiens, MV4-11; 5% FBS, about 72 hours. The procedure: as §2
as §1, with “FBS.” for “FBS or 10% normal human serum (NHS).”, “˜700” for “−700”, “invention.” for “invention. The following table lists the IC50 values of certain compounds of the invention.”

For the next data set, the system named is Granta. As to the kind of experiment: In vitro anti-proliferation assay (ATPlite), Granta. The data set is classed as cell-based. Conditions: 5% FBS, about 72 hours. The procedure: as §2
as §1, with “FBS.” for “FBS or 10% normal human serum (NHS).”, “˜700” for “−700”, “invention.” for “invention. The following table lists the IC50 values of certain compounds of the invention.”

The next data set has as its system H146. Put plainly: In vitro anti-proliferation assay (ATPlite), small cell lung cancer cell line H146. In kind it is cell-based. The conditions noted are these: 5% FBS, about 72 hours. The procedure:
as §2
as §1, with “FBS.” for “FBS or 10% normal human serum (NHS).”, “˜700” for “−700”, “invention.” for “invention. The following table lists the IC50 values of certain compounds of the invention.”
(§3) Cisplatin, the standard of Care of small cell lung cancer cell lines was used as the positive control drug.

Another data set has as its system H889. As to the kind of experiment: In vitro anti-proliferation assay (ATPlite), small cell lung cancer cell line H889. The conditions noted are these: 5% FBS, about 72 hours. The data set is classed as cell-based. The procedure:
as §2
as §1, with “FBS.” for “FBS or 10% normal human serum (NHS).”, “˜700” for “−700”, “invention.” for “invention. The following table lists the IC50 values of certain compounds of the invention.”
as §3

A further data set concerns H1963. Put plainly: In vitro anti-proliferation assay (ATPlite), small cell lung cancer cell line H1963. The data set is classed as cell-based. Conditions: 5% FBS, about 72 hours. The procedure:
as §2
as §1, with “FBS.” for “FBS or 10% normal human serum (NHS).”, “˜700” for “−700”, “invention.” for “invention. The following table lists the IC50 values of certain compounds of the invention.”
as §3

Data set [2] in a line: Mice PK study, oral dosing. The conditions noted are these: CD-1 mouse, 10 mg/kg; for AUC(0-t) / bioavailability / half-life: plasma; for bioavailability: read-out: Bioavailabilty; for half-life: read-out: t ½ (converted). In kind it is in vivo. The procedure: Biological Example 4: Mice PK Study
The pharmacokinetics of compounds were evaluated in CD-1 mouse via Intravenous and Oral Administration. The IV dose was administered as a slow bolus in the Jugular vein, and oral doses were administered by gavage. The formulation for IV dosing was 5% DMSO in 20% HPBCD in water, and the PO formulation was 2.5% DMSO, 10% EtOH, 20% Cremphor EL, 67.5% D5W. The PK time point for the IV arm was 5, 15, 30 min, 1, 2, 4, 6, 8, 12, 24 hours post dose, and for PO arm was 15, 30 min, 1, 2, 4, 6, 8, 12, 24 hours post dose. Approximately 0.03 mL blood was collected at each time point. Blood of each sample was transferred into plastic micro centrifuge tubes containing EDTA-K2 and collect plasma within 15 min by centrifugation at 4000 g for 5 minutes in a 4° C. centrifuge. Plasma samples were stored in polypropylene tubes. The samples were stored in a freezer at −75±15° C. prior to analysis. Concentrations of compounds in the plasma samples were analyzed using a LC-MS/MS method. WinNonlin (Phoenix™, version 6.1) or other similar software was used for pharmacokinetic calculations. The following pharmacokinetic parameters were calculated, whenever possible from the plasma concentration versus time data: IV administration: C0, CL, Vd, T1/2, AUCinf, AUClast, MRT, Number of Points for Regression; PO administration: Cmax, Tmax, T1/2, AUCinf, AUClast, F %, Number of Points for Regression. The pharmacokinetic data was described using descriptive statistics such as mean, standard deviation. Additional pharmacokinetic or statistical analysis was performed at the discretion of the contributing scientist, and was documented in the data summary.

For data set [3] the following is noted: in vivo; cited from earlier work.
The conditions of data set [4]: cited from earlier work.
The target in the next data set is T1, Bcl-w (Homo sapiens, UniProt Q92843).
T1 sequence (Q92843 1-193): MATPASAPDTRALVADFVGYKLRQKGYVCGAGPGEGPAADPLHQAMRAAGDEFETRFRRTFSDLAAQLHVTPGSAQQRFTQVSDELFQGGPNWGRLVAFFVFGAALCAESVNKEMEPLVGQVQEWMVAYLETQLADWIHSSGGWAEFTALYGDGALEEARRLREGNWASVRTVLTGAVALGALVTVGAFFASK
Conditions: cited from earlier work.

Another data set concerns SCLC H146 cell line. The conditions noted are these: read-out: IC50 against SCLC H146 cell line; cited from earlier work.
The test system of a further data set is H345 xenograft. The conditions noted are these: 100 mg/kg/day, H345 xenograft model; cited from earlier work.
Data set [5] relates to xenograft models of small-cell lung cancer and acute lymphoblastic leukemia. Conditions: oral administration, alone; cited from earlier work.
The next data set concerns circulating platelets. Conditions: clinical trial; dose-limiting thrombocytopenia; cited from earlier work.
Another data set addresses Mcl-1 (Homo sapiens, UniProt Q07820). Conditions: cited from earlier work.
Another data set concerns RS4;11 cells. The conditions noted are these: cited from earlier work.
The next data set deals with CLL. The conditions noted are these: read-out: average EC50, apoptosis in CLL; cited from earlier work.
The next data set deals with RS4;11 xenografts. Conditions: single dose of 100 mg/kg; cited from earlier work.

Chain of Mcl-1 (Q07820 whole entry): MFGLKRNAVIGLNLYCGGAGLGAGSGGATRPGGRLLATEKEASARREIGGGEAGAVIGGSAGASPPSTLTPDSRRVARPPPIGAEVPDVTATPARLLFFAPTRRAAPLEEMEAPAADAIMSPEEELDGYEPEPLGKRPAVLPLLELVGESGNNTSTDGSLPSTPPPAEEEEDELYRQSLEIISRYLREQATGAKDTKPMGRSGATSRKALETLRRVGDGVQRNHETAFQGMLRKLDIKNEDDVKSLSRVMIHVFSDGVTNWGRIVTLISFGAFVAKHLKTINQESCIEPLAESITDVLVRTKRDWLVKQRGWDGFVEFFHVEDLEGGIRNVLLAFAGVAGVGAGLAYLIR

For `CC1(C)CCC(CN2CCN(c3ccc(C(=O)NS(=O)(=O)c4ccc(NCC5CCOCC5)c([N+](=O)[O-])c4)c(N4CCCOc5nc6[nH]ccc6cc54)c3)CC2)=C(c2ccc(Cl)cc2)C1` [Example 2, 4-(4-((4′-chloro-5,5-dimethyl-3,4,5,6-tetrahydro-[1,1′-biphenyl]-2-yl)methyl)piperazin-1-yl)-2-(3,4-dihydro-2H-pyrrolo[3′,2′:5,6]pyrido[2,3-b][1,4]oxazepin-1(7H)-yl)-N-((3-nitro-4-(((tetrahydro-2H-pyran-4-yl)methyl)amino)phenyl)sulfonyl)benzamide], the IC50 (in general, the midpoint of a concentration-inhibition curve) was found to be 0.12 nM in data set [1]; 8.1 nM in the data set on Toledo; 1.6 nM in the data set on MV411; 3.5 nM with Granta; 64 nM in the data set with H146 (Homo sapiens, NCI-H146); 1 nM in the data set on H889 (Homo sapiens, NCI-H889). In addition, in the data set with H1963 (Homo sapiens, NCI-H1963), the IC50 stood at 5.6 nM. The AUC(0-t) (usually exposure summed from dosing to a finite time, without extrapolation to infinity) in [2] is 9300 ng·h/mL. In data set [2], the bioavailability worked out at 49%. The half-life in [2] is 4.3 h.
For `CN(C)CC[C@H](CSc1ccccc1)Nc1ccc(S(=O)(=O)NC(=O)c2ccc(N3CCN(Cc4ccccc4-c4ccc(Cl)cc4)CC3)cc2)cc1[N+](=O)[O-]` [ABT-737], the oral bioavailability entry in [3] is listed as “not orally bioavailable”. The aqueous solubility entry in [4] is “low aqueous solubility”.
In the case of `CC1(C)CCC(CN2CCN(c3ccc(C(=O)NS(=O)(=O)c4ccc(NC[C@H]5COCCO5)c([N+](=O)[O-])c4)c(N4CCCOc5nc6[nH]ccc6cc54)c3)CC2)=C(c2ccc(Cl)cc2)C1` [Example 9, 4-(4-[[2-(4-chlorophenyl)-4,4-dimethylcyclohex-1-en-1-yl]methyl]piperazin-1-yl)-N-[4-([[(2S)-1,4-dioxan-2-yl]methyl]amino)-3-nitrobenzenesulfonyl]-2-[14-oxa-2,4,10-triazatricyclo[7.5.0.0^[3,7]]tetradeca-1(9),2,5,7-tetraen-10-yl]benzamide], the results for the IC50 in the data set on H146, in the data set on H889 and in the data set on H1963 were 33 nM, 0.7 nM and 4.7 nM, respectively. The “AUClast(h * ng/mL)” value in data set [2] is recorded as 8,168 h * ng/mL. The compound further gave a Bioavailabilty in data set [2] of 64%. For the same compound, in [2], the “t ½” value came out at 2.3 h.
`N.N.[Cl][Pt][Cl]` [Cisplatin, reference compound]: the IC50 in the data set with H146 was determined as 4590 nM; in the data set with H889 it was 7080 nM; with H1963, 1670 nM.
Consider `CC1(C)CCC(c2ccc(Cl)cc2)=C(CN2CCN(c3ccc(C(=O)NS(=O)(=O)c4ccc(N[C@H](CCN5CCOCC5)CSc5ccccc5)c(S(=O)(=O)C(F)(F)F)c4)cc3)CC2)C1` [ABT-263], for which the IC50 in the data set on H146 (Homo sapiens, NCI-H146) was 28 nM; in the data set on H889 (Homo sapiens, NCI-H889), 32.4 nM; in the data set on H1963 (Homo sapiens, NCI-H1963), 41.7 nM; in the data set with SCLC H146 cell line, 110 nM. The Ki (as a rule, a measure of affinity in units of concentration, obtained from inhibition or displacement) on Bcl-w is no more than 1 nM. Besides, in the data set on H345 xenograft, the TGI (as a rule, how far tumour growth fell short of that in controls) was 80%. Besides, in the data set on H345 xenograft, the “treated tumors indicating at least a 50% reduction in tumor volume” value is reported as 20%. Further, the tumor regression entry in [5] is on record as “complete tumor regressions”. The “number of circulating platelets” value with circulating platelets was “rapid, concentration-dependent decrease in the number of circulating platelets”.
In the data set with H146, `CC1(C)CCC(CN2CCN(c3ccc(C(=O)NS(=O)(=O)c4ccc(NC[C@@H]5COCCO5)c([N+](=O)[O-])c4)c(N4CCCOc5nc6[nH]ccc6cc54)c3)CC2)=C(c2ccc(Cl)cc2)C1` [Example 8, 4-(4-[[2-(4-chlorophenyl)-4,4-dimethylcyclohex-1-en-1-yl]methyl]piperazin-1-yl)-N-[4-([[(2R)-1,4-dioxan-2-yl]methyl]amino)-3-nitrobenzenesulfonyl]-2-[14-oxa-2,4,10-triazatricyclo[7.5.0.0^[3,7]]tetradeca-1(9),2,5,7-tetraen-10-yl]benzamide] had an IC50 of 50 nM. This compound gave an IC50 in the data set with H889 of 0.7 nM. The compound also had an IC50 in the data set on H1963 of 5.3 nM. Also, in data set [2], the “AUClast(h * ng/mL)” value is 5,714 h * ng/mL, the Bioavailabilty is on record as 44% and the “t ½” value was 2.3 h.
For `CC1(C)CCC(CN2CCN(c3ccc(C(=O)NS(=O)(=O)c4ccc(NCC5(F)CCOCC5)c([N+](=O)[O-])c4)c(N4CCCOc5nc6[nH]ccc6cc54)c3)CC2)=C(c2ccc(Cl)cc2)C1` [Example 3, 4-(4-((4′-chloro-5,5-dimethyl-3,4,5,6-tetrahydro-[1,1′-biphenyl]-2-yl)methyl)piperazin-1-yl)-2-(3,4-dihydro-2H-pyrrolo[3′,2′:5,6]pyrido[2,3-b][1,4]oxazepin-1(7H)-yl)-N-((4-(((4-fluorotetrahydro-2H-pyran-4-yl)methyl)amino)-3-nitrophenyl)sulfonyl)benzamide], the IC50 is less than 0.1 nM in [1]; 43 nM with H146 (Homo sapiens, NCI-H146); 0.9 nM in the data set with H889 (Homo sapiens, NCI-H889); 4.2 nM in the data set on H1963 (Homo sapiens, NCI-H1963). For the same compound, the AUC(0-t) in data set [2] is 4160 ng·h/mL. The bioavailability in [2] was 30%. Further, the half-life in [2] is 2.6 h.
Regarding `CC1(C)CCC(CN2CCN(c3ccc(C(=O)NS(=O)(=O)c4ccc(NCC5CCOCC5)c([N+](=O)[O-])c4)c(Oc4cnc5[nH]ccc5c4)c3)CC2)=C(c2ccc(Cl)cc2)C1` [ABT-199], the IC50 in data set [1] amounted to 5.8 nM; in the data set with Toledo it was 98.1 nM; in the data set on MV411 it was 20.1 nM; in the data set on Granta, 42.5 nM. Moreover, at Mcl-1, the “activity to Mcl-1” value is “no activity”. Also, the 50% effective concentration (EC50) (as a rule, the concentration needed to bring the measured effect to its halfway point) was 8 nM with RS4;11 cells and 3 nM in the data set with CLL. In addition, in the data set with RS4;11 xenografts, the “maximal tumor growth inhibition” value was 95%. Also, the tumor growth delay in the data set with RS4;11 xenografts is recorded as 152%.
